From paper PMC10848157, “Assessing NH300094, a novel dopamine and serotonin receptor modulator with cognitive enhancement property for treating schizophrenia” (Frontiers in Pharmacology, 2024)

Legend:
D2S receptor = D2S receptor (Homo sapiens, UniProt P14416); assay: D2S receptor functional assay (cAMP assay, antagonist); format: cell-based; settings: antagonist activity, CHO-K1/D2 cells, read-out: D2SR, IC50
D3 receptor = D3 receptor (Homo sapiens, UniProt P35462); assay: D3 receptor functional assay (Nano-Glo luciferase assay system); format: cell-based; settings: antagonist activity, CHO-K1/D3 cells, read-out: D3R, IC50
5-HT1A receptor = molecular target: T1, 5-HT1A receptor (Homo sapiens, UniProt P08908); assay: 5-HT1A receptor functional assay (cAMP assay, antagonist); format: cell-based; settings: antagonist activity, CHO-K1/5-HT1A cells, read-out: 5HT1AR, IC50
T1 sequence (P08908 1-422): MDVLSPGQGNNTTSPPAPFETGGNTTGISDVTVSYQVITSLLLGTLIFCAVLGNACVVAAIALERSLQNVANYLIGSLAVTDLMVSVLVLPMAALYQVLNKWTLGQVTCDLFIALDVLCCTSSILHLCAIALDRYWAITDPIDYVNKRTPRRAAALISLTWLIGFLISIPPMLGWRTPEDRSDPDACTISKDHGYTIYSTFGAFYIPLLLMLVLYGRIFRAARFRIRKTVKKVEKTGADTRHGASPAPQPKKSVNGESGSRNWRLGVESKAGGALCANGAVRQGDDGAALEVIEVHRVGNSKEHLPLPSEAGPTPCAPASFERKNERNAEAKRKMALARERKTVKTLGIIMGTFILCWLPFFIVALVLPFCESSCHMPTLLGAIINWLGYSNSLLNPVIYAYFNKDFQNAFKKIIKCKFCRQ

Alpha2A receptor = molecular target: T2, Alpha2A receptor (Homo sapiens, UniProt P08913); assay: Alpha2A receptor functional assay (cAMP assay); format: cell-based; settings: HEK293/Alpha2A cells, read-out: Alpha2AR, IC50
T2 construct: expressed in transfected cells; host or cells: HEK293/Alpha2A (constructed by Shanghai shujing Biopharma)
T2 sequence (P08913 1-465): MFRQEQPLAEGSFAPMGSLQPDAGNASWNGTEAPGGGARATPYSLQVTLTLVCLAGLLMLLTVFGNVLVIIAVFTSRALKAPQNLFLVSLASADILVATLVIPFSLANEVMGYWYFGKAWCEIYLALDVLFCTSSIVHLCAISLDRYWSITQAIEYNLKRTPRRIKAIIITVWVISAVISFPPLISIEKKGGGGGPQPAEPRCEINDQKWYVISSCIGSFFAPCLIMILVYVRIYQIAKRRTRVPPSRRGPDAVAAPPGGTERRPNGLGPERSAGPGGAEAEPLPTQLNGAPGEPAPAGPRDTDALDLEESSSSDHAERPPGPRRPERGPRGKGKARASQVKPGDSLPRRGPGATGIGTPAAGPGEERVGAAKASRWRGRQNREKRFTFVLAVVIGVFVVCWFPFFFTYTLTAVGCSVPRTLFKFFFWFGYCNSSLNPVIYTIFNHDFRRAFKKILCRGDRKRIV

5-HT7 receptor = molecular target: T3, 5-HT7 receptor (Homo sapiens, UniProt P34969); assay: 5-HT7 receptor functional assay (Bright-Glo Luciferase assay system); format: cell-based; settings: HEK293/5-HT7 cells, read-out: 5HT7R, IC50
T3 construct: host or cells: HEK293/5-HT7

male ICR mice [1] = assay: MK-801-induced hyperactivity in mice; format: in vivo; settings: single oral dose
Description: Immediately after injection with either saline or MK-801 (0.3 mg/kg, i.p.), the mice were placed into the test chambers (29 cm × 29 cm × 30 cm) for 60 min of locomotion recording using a tracking and computerized analysis system (TopScan Version 3.00, Clever Sys Inc., Leesburg, VA).

male Wistar rats = assay: Conditioned avoidance response test in rats; format: in vivo; settings: Rattus norvegicus, single oral dose, read-out: ED50, inhibition of conditioned avoidance response
Text: Shuttle-box Avoidance Test Video Analysis System (DigBehv-SBG, Shanghai Jiliang Software Technology Co. Ltd.) were used to assess the rats conditioned avoidance response.
Phase I: The rats responded to the conditioned stimulus (auditory and visual) by training with foot shock reinforcement. Briefly, rats were placed into the CAR shuttle boxes for a 5-min habituation followed by 30 trials presented on a 20-s variable interval (20–30 s) stimulus. Each rats were subjected to a conditioned stimulus which consisted of 10s presentation of light and white noise, and then followed by a scrambled 1.5 mA foot shock for 10 s. […] Rats with avoidance rates greater than 70% for 3 consecutive days were included in this study post-training.
Phase II: The qualified rats were randomly divided into 7 groups. […] The procedure in the testing phase was the same as the Phase I described. The number of avoidances, escapes, and escape failures were recorded.

male ICR mice [2] = assay: Novel object recognition in scopolamine hydrobromide-treated mice; format: in vivo; settings: NOR; NH300094 0.01–0.16 mg/kg p.o.; risperidone 0.04, 0.08, 0.16 mg/kg p.o.; rivastigmine 0.3 and 1 mg/kg i.p.
Description: The procedure was modified according to Bevins and Besheer ([Bevins and Besheer, 2006]). […] The tests were conducted in a 50 cm × 35 cm × 20 cm chamber and the mice behavior was recording using a Hikvision video recording system (H.265, Hikvision Digtial Technology Co., Ltd.). All mice were allowed to freely explore the chamber environment for 10 min, and there were no objects placed in the chamber during acclimatization period. […] Rivastigmine hydrogen tartrate group (0.1, 0.3 and 1 mg/kg, i.p.) were dosed simultaneously with scopolamine hydrobromide (3 mg/kg, i.p.). Training was conducted 30 min post scopolamine hydrobromide administration by placing a single mouse into a chamber for 10 min with two exactly same objects positioned in the center of chamber. (The distance between the two objects was more than 20 cm). […]
The experimental video was analyzed to record the time of mice exploring the new and old objects, respectively, and the differentiation index (DI) was calculated as follows: DI = new object exploration time/(new object exploration time + old object exploration time), which was used as the main evaluation index of discrimination ability. […] If the total exploration time of the new and old objects was less than 20 s, the total 10 min of video would be analyzed. […] The movement of circling without sniffing or sitting on the object was not recorded as exploration behavior.

male ICR mice [3] = settings: p.o.
in vivo = settings: male, ICR, mouse, po
male ICR mice [4] = assay: DOI-induced head twitch in mice

T3 sequence (P34969 whole entry): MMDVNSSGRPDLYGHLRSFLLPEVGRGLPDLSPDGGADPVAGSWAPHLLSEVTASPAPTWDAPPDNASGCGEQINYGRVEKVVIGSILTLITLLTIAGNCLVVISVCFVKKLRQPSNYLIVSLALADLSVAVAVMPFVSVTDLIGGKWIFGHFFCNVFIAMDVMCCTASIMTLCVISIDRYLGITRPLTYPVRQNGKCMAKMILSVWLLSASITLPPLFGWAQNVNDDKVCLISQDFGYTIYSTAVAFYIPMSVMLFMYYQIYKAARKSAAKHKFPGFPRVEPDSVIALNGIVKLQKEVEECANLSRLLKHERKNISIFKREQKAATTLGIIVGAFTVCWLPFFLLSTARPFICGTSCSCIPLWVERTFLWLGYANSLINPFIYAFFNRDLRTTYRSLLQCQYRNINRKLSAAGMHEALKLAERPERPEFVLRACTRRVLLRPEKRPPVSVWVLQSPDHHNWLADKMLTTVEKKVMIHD
Chain of D3 receptor (P35462 whole entry): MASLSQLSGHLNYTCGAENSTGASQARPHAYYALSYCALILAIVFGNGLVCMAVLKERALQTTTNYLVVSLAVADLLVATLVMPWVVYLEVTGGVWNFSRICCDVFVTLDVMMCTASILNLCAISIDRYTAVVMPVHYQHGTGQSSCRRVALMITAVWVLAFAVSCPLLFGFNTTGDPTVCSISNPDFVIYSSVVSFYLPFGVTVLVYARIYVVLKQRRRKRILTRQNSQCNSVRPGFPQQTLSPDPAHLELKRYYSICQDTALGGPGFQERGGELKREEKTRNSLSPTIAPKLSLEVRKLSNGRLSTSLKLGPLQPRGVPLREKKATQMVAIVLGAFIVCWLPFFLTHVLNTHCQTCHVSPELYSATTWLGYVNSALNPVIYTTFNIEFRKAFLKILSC
Chain of D2S receptor (P14416 1-414 isoform P14416-2): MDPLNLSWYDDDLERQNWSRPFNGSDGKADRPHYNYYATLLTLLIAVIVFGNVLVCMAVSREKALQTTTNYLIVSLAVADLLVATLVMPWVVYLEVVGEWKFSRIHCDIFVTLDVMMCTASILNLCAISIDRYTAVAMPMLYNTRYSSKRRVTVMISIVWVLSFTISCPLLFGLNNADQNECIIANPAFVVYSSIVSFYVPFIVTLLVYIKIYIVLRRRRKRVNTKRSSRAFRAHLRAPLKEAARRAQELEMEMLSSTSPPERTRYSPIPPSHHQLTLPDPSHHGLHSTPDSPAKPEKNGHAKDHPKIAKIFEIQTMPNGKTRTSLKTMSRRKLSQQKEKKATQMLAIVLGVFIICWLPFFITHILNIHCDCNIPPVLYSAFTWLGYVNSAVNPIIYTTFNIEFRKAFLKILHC

Question: With `O=C1CCc2cc(OCCCN3CCC(c4noc5cc(F)ccc45)CC3)cc3c2N1CC3` [NH300094, 8-(3-(4-(6-fluorobenzo [d]isoxazol-3-yl)piperidin-1-yl)propoxy)-1,2,5,6-tetrahydro-4H-pyrrolo [3,2,1-ij] quinolin-4-one] as the compound, how does the IC50 (D2S receptor) read?
Answer: The IC50 was 11.7 ± 9.38 nM.

Question: What about the IC50 (D3 receptor) of the same compound?
Answer: Its IC50 is 31.5 ± 23.1 nM.

Question: And the IC50 (5-HT1A receptor)?
Answer: The IC50 was 85.6 ± 61.5 nM.

Question: What about the IC50 (Alpha2A receptor) of the same compound?
Answer: The IC50 was 314 nM.

Question: What about the IC50 (5-HT7 receptor) of the same compound?
Answer: Its IC50 is 5520 nM.

Question: What about the ED50 (male ICR mice [1]; Mus musculus, MK-801 0.3 mg/kg i.p., read-out: ED50, inhibition of MK-801-induced hyperactivity) of the same compound?
Answer: The ED50 was roughly 0.07 mg/kg.

Question: What about the “Minimum effective dose (MED), MK-801-induced hyperactivity” value (male ICR mice [1]) of the same compound?
Answer: The value was 0.03 mg/kg.

Question: And the ED50 (male Wistar rats)?
Answer: The ED50 was roughly 1.02 mg/kg.

Question: What about the “effect on differentiation index (DI) of scopolamine hydrobromide-treated mice” value (male ICR mice [2]) of the same compound?
Answer: Its value is “increased DI index”.

Question: And the “minimal dose that induced catalepsy” value (male ICR mice [3])?
Answer: Its value is 3 mg/kg.

Question: What about the ED50 (in vivo) of the same compound?
Answer: The ED50 was 6.73 mg/kg.

Question: And the ED50 (male ICR mice [4]; Mus musculus, po, read-out: ED50, inhibition of DOI-induced head twitch, single oral dose, male ICR mice, DOI 1 mg/kg)?
Answer: Its ED50 is roughly 0.007 mg/kg.

Question: What about the “MED, DOI-induced head twitch” value (male ICR mice [4]; single oral dose, male ICR mice) of the same compound?
Answer: The value was 0.003 mg/kg.
